From ChEMBL document CHEMBL1201862, “PubChem BioAssay data set” (2004)
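1) Cells in 96-well plates. 2) Compound, 48 h, 5 concentrations. 3) Linear interpolation between surrounding doses. 4) Unreached endpoint = highest concentration. GI50 is the concentration that inhibits growth by half.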 Calls of active or inactive are those of the source. Cut-off read from the data, not from the text of the source: active = GI50 up to about 1.1 µM and inactive = higher.

Assays:
Experiment in all cases: growth of human tumour cells (NCI), 48 h
NCI-H23 = test system: NCI-H23
HCT-116 = test system: HCT-116
BT-549 = test system: BT-549
HOP-92 = test system: HOP-92
U-251 = test system: U-251
SNB-75 = test system: SNB-75
OVCAR-8 = test system: OVCAR-8
HOP-62 = test system: HOP-62
SN12C = test system: SN12C
OVCAR-5 = test system: OVCAR-5
MOLT-4 = test system: MOLT-4
SK-OV-3 = test system: SK-OV-3
MDA-N = test system: MDA-N
NCI-H460 = test system: NCI-H460
UACC-62 = test system: UACC-62
SK-MEL-5 = test system: SK-MEL-5
SF-295 = test system: SF-295
SK-MEL-28 = test system: SK-MEL-28
MDA-MB-231 = test system: MDA-MB-231
OVCAR-3 = test system: OVCAR-3

Measured: GI50

CCOC(=O)Cc1nn2c(=O)cc(C)nc2s1
inactive: NCI-H23 > 100 µM | HCT-116 > 100 µM | BT-549 > 100 µM | HOP-92 > 100 µM | U-251 > 100 µM | SNB-75 > 100 µM | OVCAR-8 > 100 µM | HOP-62 > 100 µM | SN12C > 100 µM | OVCAR-5 > 100 µM | MOLT-4 > 100 µM | SK-OV-3 > 100 µM | MDA-N > 100 µM | NCI-H460 > 100 µM | UACC-62 > 100 µM | SK-MEL-5 > 100 µM | SF-295 > 100 µM | SK-MEL-28 > 100 µM | MDA-MB-231 > 100 µM | OVCAR-3 > 100 µM

Nc1ccc2c3c1cccc3c(=O)n1c3ccc(Cc4ccc5c(c4)nc4c6ccc(N)c7cccc(c(=O)n54)c76)cc3nc21
inactive: NCI-H23 > 100 µM | HCT-116 > 100 µM | BT-549 > 100 µM | HOP-92 > 100 µM | U-251 > 100 µM | SNB-75 30.8 µM | OVCAR-8 > 100 µM | HOP-62 > 100 µM | SN12C > 100 µM | OVCAR-5 > 100 µM | MOLT-4 > 100 µM | SK-OV-3 > 100 µM | MDA-N > 100 µM | NCI-H460 > 100 µM | UACC-62 > 100 µM | SK-MEL-5 > 100 µM | SF-295 > 100 µM | SK-MEL-28 > 100 µM | MDA-MB-231 > 100 µM | OVCAR-3 > 100 µM

COC(=O)C1=C(C(=O)OC)C(C(=O)c2ccc(Br)cc2)N2N=C(c3ccc(Cl)cc3)C=CC12 (stereo not given)
inactive: NCI-H23 > 100 µM | HCT-116 > 100 µM | BT-549 34.8 µM | HOP-92 72.1 µM | U-251 > 100 µM | SNB-75 35.2 µM | OVCAR-8 > 100 µM | HOP-62 > 100 µM | SN12C > 100 µM | OVCAR-5 > 100 µM | MOLT-4 > 100 µM | SK-OV-3 > 100 µM | MDA-N > 100 µM | NCI-H460 > 100 µM | UACC-62 25.2 µM | SK-MEL-5 > 100 µM | SF-295 67 µM | SK-MEL-28 > 100 µM | MDA-MB-231 > 100 µM | OVCAR-3 > 100 µM

CCn1c(SCc2nnc(Nc3ccccc3)s2)nc2ccccc2c1=O
inactive: NCI-H23 4.7 µM | HCT-116 1.95 µM | BT-549 5.24 µM | HOP-92 2.57 µM | U-251 2.24 µM | SNB-75 3.85 µM | OVCAR-8 2.02 µM | HOP-62 2.17 µM | SN12C 4.23 µM | OVCAR-5 6.14 µM | MOLT-4 42.6 µM | SK-OV-3 2.62 µM | MDA-N 8.77 µM | NCI-H460 1.45 µM | UACC-62 3.3 µM | SK-MEL-5 8.15 µM | SF-295 2.52 µM | SK-MEL-28 16.4 µM | MDA-MB-231 3.18 µM | OVCAR-3 5.19 µM

C/C(=N/NC(=S)N1CCN(C(=S)N/N=C(/C)c2ccccn2)CC1)c1ccccn1
inactive: NCI-H23 10.1 µM | HCT-116 6.89 µM | BT-549 15.9 µM | HOP-92 > 46.2 µM | U-251 8.89 µM | SNB-75 15.1 µM | OVCAR-8 4.13 µM | HOP-62 10 µM | SN12C 8.65 µM | OVCAR-5 > 66.8 µM | MOLT-4 4.79 µM | SK-OV-3 8.3 µM | MDA-N > 77.8 µM | NCI-H460 2.99 µM | UACC-62 6.71 µM | SK-MEL-5 6.97 µM | SF-295 6.25 µM | SK-MEL-28 14.3 µM | MDA-MB-231 45.2 µM | OVCAR-3 3.01 µM
